# Data reported in paper PMC12238268, “The immunomodulatory p43 secreted protein of Trichuris whipworm parasites is a lipid carrier that binds signalling lipids and precursors” (Scientific Reports, 2025).
# Tests used:
# Assay type in all cases: binding
# p43 (Tm-DLP-1) [1] = target: T1, p43 (Tm-DLP-1) (Trichuris muris, UniProt A0A5S6QYG9); assay: fluorescence titration
# T1 construct: native, purified from adult worm excretory/secretory medium by Ni-NTA (natural His-rich tail) and Superdex 75; signal peptide predicted cleaved between 17 and 18
# p43 (Tm-DLP-1) [2] = target: T1, p43 (Tm-DLP-1); assay: intrinsic fluorescence enhancement of ligand; conditions: PBS pH 7.2
# p43 (Tm-DLP-1) [3] = target: T1, p43 (Tm-DLP-1); assay: fluorescence enhancement and blue shift of probe; conditions: approximately 1 μM DACA; PBS pH 7.2
# T1 sequence (A0A5S6QYG9 entry or part of it): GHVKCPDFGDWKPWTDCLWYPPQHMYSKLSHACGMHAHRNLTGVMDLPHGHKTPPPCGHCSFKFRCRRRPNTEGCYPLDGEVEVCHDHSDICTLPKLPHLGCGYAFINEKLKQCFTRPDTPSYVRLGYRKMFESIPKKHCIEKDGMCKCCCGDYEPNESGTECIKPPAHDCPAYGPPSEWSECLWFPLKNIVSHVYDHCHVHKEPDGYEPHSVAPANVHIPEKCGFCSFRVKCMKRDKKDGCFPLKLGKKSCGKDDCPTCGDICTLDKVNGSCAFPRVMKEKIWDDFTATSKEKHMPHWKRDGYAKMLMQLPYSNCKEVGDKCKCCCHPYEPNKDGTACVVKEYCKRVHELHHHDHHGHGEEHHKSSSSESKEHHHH
compound,measurement,setting,value
"CN(C)c1cccc2c(S(=O)(=O)NCCCCCCCCCCC(=O)O)cccc12 [DAUDA, 11-((5-dimethylaminonaphthalene-1-sulfonyl)amino)undecanoic]",Kd,p43 (Tm-DLP-1) [1],350 nM
CC\C=C/C=C/C=C/C=C\CCCCCCCC(=O)O [cis-parinaric acid],intrinsic fluorescence enhancement of ligand,p43 (Tm-DLP-1) [2]; approximately 4 μM cPnA,p43 bound cPnA strongly and was displaceable with oleic acid (Fig. 1C)
CCCCCCC(NS(=O)(=O)c1cccc2c(N(C)C)cccc12)C(=O)O (stereo not shown) [dansyl aminocaprylic acid],fluorescence enhancement and blue shift of probe,p43 (Tm-DLP-1) [3],"essentially the same observations with another fluorescent probe, dansyl aminocaprylic acid (DACA)"
CC1=C(/C=C/C(C)=C/C=C/C(C)=C/CO)C(C)(C)CCC1 [retinol],intrinsic fluorescence enhancement of ligand,p43 (Tm-DLP-1) [2]; approximately 1 μM retinol,"p43 bound retinol, from which it was displaceable by oleic acid (Fig. 2A)"
